Results: ChEMBL document CHEMBL4376903, “Cereblon Based Immunomodulatory Therapeutics” (ACS Med Chem Lett, 2020)

Assays:
Type in all cases: cell-based
[1] = molecular target: T1, Protein cereblon/Estrogen receptor (Homo sapiens, UniProt P03372+Q96SW2); assay: Protac activity at cereblon/ERalpha in human MCF7 cells assessed as induction of ERalpha protein degradation by Western blot analysis relative to control
Target sequence in this assay (Q96SW2 whole entry, looked up, one chain of several): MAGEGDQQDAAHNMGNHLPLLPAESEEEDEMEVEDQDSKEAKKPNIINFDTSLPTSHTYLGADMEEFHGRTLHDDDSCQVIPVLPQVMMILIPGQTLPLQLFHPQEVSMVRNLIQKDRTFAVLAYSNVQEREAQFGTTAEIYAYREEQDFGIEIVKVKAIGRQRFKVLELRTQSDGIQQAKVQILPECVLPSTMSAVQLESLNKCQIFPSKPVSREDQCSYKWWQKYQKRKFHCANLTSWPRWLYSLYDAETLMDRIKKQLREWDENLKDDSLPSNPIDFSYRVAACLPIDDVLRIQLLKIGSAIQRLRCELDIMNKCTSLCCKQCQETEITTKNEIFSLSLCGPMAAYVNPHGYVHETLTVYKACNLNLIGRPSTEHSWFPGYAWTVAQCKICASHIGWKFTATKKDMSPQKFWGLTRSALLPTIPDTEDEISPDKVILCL

Estrogen receptor = molecular target: T2, Estrogen receptor (Homo sapiens, UniProt P03372); assay: Inhibition of ERalpha in human T47D cells by ERE-driven luciferase reporter gene assay based target engagement assay
T2 sequence (P03372 whole entry): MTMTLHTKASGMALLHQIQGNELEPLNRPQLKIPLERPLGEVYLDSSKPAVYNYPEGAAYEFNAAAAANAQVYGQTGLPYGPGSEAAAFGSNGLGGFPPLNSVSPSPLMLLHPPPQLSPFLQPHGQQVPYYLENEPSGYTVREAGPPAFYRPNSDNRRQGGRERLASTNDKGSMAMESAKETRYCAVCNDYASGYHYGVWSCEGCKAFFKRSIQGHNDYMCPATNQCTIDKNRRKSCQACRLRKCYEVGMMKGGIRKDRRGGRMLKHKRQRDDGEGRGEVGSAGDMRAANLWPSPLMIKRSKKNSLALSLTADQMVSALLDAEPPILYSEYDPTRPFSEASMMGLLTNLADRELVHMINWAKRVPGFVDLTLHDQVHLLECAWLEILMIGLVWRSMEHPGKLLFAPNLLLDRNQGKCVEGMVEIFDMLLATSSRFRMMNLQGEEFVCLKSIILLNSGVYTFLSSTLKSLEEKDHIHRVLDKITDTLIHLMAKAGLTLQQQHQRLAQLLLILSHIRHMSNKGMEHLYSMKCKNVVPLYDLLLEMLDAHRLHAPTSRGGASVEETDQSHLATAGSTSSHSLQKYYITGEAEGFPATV

[2] = molecular target: T1, Protein cereblon/Estrogen receptor; assay: Protac activity at cereblon/ERalpha in human MCF7 cells assessed as induction of ERalpha protein degradation by Western blot analysis
Target sequence in this assay (Q96SW2 whole entry, one chain of several): as the sequence (Q96SW2 whole entry, looked up, one chain of several) above

Row | SMILES | Emax [1] [%] | IC50 (Estrogen receptor) [nM] | DC50 [2] [nM]
1 | COc1cc(N2CCN(CCC3(O)CC(Oc4ccc([C@@H]5c6ccc(O)cc6CC[C@@H]5c5ccccc5)cc4)C3)CC2)cc2c1C(=O)N(C1CCC(=O)NC1=O)C2 (some centres undefined) | > 75 | 0.3 | < 1
2 | COc1cc(N2CCN(CCCCCOc3ccc([C@@H]4c5ccc(O)cc5CC[C@@H]4c4ccccc4)cc3)CC2)cc2c1C(=O)N([C@@H]1CCC(=O)NC1=O)C2 | > 75 | 0.37 | < 1
3 | COc1cc(N2CCN(C3CC4CC(Oc5ccc([C@@H]6c7ccc(O)cc7CC[C@@H]6c6ccc(F)cc6)cc5)CC4C3)CC2)cc2c1C(=O)N(C1CCC(=O)NC1=O)C2 (some centres undefined) | 50 to 75 | 0.82 | < 1
4 | COc1cc(N2CCN(CCCCCOc3ccc([C@@H]4c5ccc(O)cc5CC[C@@H]4c4ccccc4)cc3)CC2)cc2c1C(=O)N([C@H]1CCC(=O)NC1=O)C2 | > 75 | 0.49 | < 1
5 | COc1cc(N2CCN(CC(=O)C3CC(Oc4ccc([C@@H]5c6ccc(O)cc6CC[C@@H]5c5ccccc5)cc4)C3)CC2)cc2c1C(=O)N(C1CCC(=O)NC1=O)C2 (some centres undefined) | > 75 | 0.7 | < 1
6 | COc1cc(N2CCN(CCC3CCN(c4ccc([C@@H]5c6ccc(O)cc6CC[C@@H]5c5ccccc5)cc4F)CC3)CC2)cc2c1C(=O)N(C1CCC(=O)NC1=O)C2 (some centres undefined) | > 75 | 0.7 | 1 to 10
7 | COc1cc(N2CCN(CCCCCOc3ccc([C@@H]4c5ccc(O)cc5CC[C@@H]4c4ccccc4)cc3)CC2)cc2c1C(=O)N(C1CCC(=O)NC1=O)C2 (some centres undefined) | > 75 | 0.79 | 1 to 10
8 | O=C1CCC(N2Cc3cc(N4CCN(CCC5(O)CC(Oc6ccc([C@@H]7c8ccc(O)cc8CC[C@@H]7c7ccccc7)cc6)C5)CC4)cc(OC(F)F)c3C2=O)C(=O)N1 (some centres undefined) | 50 to 75 | 0.5 | < 1
